Patent US8652791B2, “Method of classifying human subjects having adolescent idiopathic scoliosis (AIS) and method for screening for a compound useful in the treatment of AIS and related syndromes causing spinal deformities” (Hopital Sainte-Justine, priority 2002, dated 2014)
“Also recorded” adds a separate entry of the source. Blank lines part the entries; values can stand above or below the compound they belong to.

What was measured:
[1] = test system: Gi proteins (inhibition of adenylyl cyclase activity in osteoblasts); test: cAMP accumulation assay in osteoblasts, Gpp(NH)p as agonist; format: cell-based, human; settings: forskolin-stimulated
Procedure: The functionality of Gi proteins was assessed by investigating their ability to inhibit adenylyl cyclase activity in osteoblasts. To obtain inhibition curve of cAMP production the non-hydrolysable analogue of GTP, Gpp(NH)p (guanilyl 5′-imidophosphate, Sigma™) was added to the forskolin-containing samples in concentrations ranging from 10 nM to 100 μM. The cAMP content was determined as described above in similar assays with melatonin.
The values reported in FIG. 8 were detected after the administration of 10^−9M Gpp(NH)p, a GTP non-hydrolysable analogue.

[2] = test system: forskolin-stimulated adenylyl cyclase activity in osteoblasts; test: cAMP accumulation assay in osteoblasts, melatonin as agonist; format: cell-based, human
Procedure: Osteoblasts from patients with AIS and control subjects were seeded in quadruplet on 24-wells plate (1×10^5 cells/well) and incubated either with the vehicle alone, dimethyl sulphoxide (DMSO, Sigma™, Oakville, ON, Canada) or the diterpene forskolin (10^−5M, Sigma™) to stimulate the cAMP formation. Inhibition curves of cAMP production were generated by adding melatonin to the forskolin-containing samples in concentrations ranging from 10^−11M to 10^−5M in a final volume of 1 ml of DMEM media with 0.5% bovine serum albumin (BSA, Sigma™). After a 30-minute incubation at 37° C., the cells were lysed and the sample centrifuged at 4° C. The cAMP content was determined in 200 μl aliquot of the supernatant using an enzyme immunoassay kit (Amersham-Pharmacia Biosciences, Mississauga, ON, Canada). All assays were performed in duplicate.
A method of screening of the present invention was performed and identified estrogen as one compound able to modulate the melatonin-signaling pathway impairment in AIS patients. Experiments were performed showing the effect of increasing concentrations of melatonin (10^−11 to 10^−5M) used as known agonist of melatonin-signaling pathway on forskolin-stimulated adenylyl cyclase activity in osteoblasts from two patients with AIS (group 3 see Table 2) treated or not with a physiological dose of estradiol (10^−10M). Results illustrated in panels A and B of FIG. 19 correspond to AIS patient numbered 13 and 29 in Table 1, respectively.

[3] = test system: Gi proteins coupled to MT1 and MT2 receptors; test: Co-immunoprecipitation of Gi proteins coupled to melatonin receptors and their phosphorylation state; format: cell-based, human; settings: for phosphorylated forms of Gi3 and Gi2 in MT1 or MT2 immune complexes: overnight treatment of the cells
Procedure: Co-immunoprecipitation assays were performed with anti-MT1 and anti-MT2 specific antibodies (kind gifts of Dr Debora Angeloni and Prof Franco Fraschini, University of Milan, Italy) to identify Gi proteins coupled to individual melatonin receptor in human MG-63 osteoblasts (FIG. 9).
The specific antibodies were incubated with membrane fractions purified from osteoblasts untreated and treated with melatonin (10^−9M), genistein or herbimycin (1 μM, tyrosine kinase inhibitors, Sigma™) or sodium orthovanadate, Na3VO4, (1 mM, tyrosine phosphatase inhibitor, Sigma™) for at least 16 h. Presence of coupled Gi proteins in respective immune-complexes were determined by SDS-PAGE and Western blot with specific Gi antibodies (Santa Cruz Biotechnology Inc., Santa Cruz, Calif., USA) and phosphorylation status of these coupled Gi proteins were determined using anti-phosphoserine, phosphothreonine and phosphotyrosine antibodies (Sigma™) using the same membrane after stripping. Purified recombinant Gi proteins were used as control for antibody specificity.

human osteoclasts = test: Osteoclast pit resorption assay on bone matrix; format: cell-based
Procedure: The inhibitory effect of melatonin on osteoclasts activity was performed using normal human osteoclasts derived from peripheral blood. Mel, melatonin; luz, luzindole, a specific MT2 antagonist;
Other functional assays with melatonin using osteoclasts derived from monocytes/lymphocytes fraction isolated from peripheral blood of AIS patients and control subjects are performed. Primary osteoclasts are derived from the peripheral blood of patients and non-scoliotic subjects using 10 ml of blood or less. Anticoagulant-treated blood is layered on the Ficoll-Paque™ solution and centrifuged for a short period of time. Differential migration during centrifugation results in the formation of layers containing different blood cells. Because of their lower density, the lymphocytes are found at the interface between the plasma and the Ficoll-Paque™ with other slowly sedimenting particles (platelet and monocytes). The lymphocytes are then recovered from the interface and subjected to a short washing step with a balanced salt solution to remove any platelets, Ficoll-Paque™ and plasma. The cells are then counted and seeded at high density (1×10^6 cells per cm^2) onto artificial bone or dentin matrix in α-MEM with 10% FBS and antibiotics. After a few days, cells that remain adherent will start to differentiate into osteoclasts, forming large multinucleate cells after 15-20 days.

[4] = test system: MT1 receptor expression in MC3T3-E1 cells; test: RT-PCR expression analysis of melatonin receptors; format: cell-based; settings: melatonin 10^-7M
Procedure: RT-PCR were performed with specific primers corresponding to melatonin receptor subtypes, MT1 (panel A, FIG. 7), MT2 (panel B, FIG. 7) and OPN (panel C, FIG. 7) using 2 μg of RNA isolated every 2 h during a 24 h cycle from MC3T3-E1 cells treated (+) or not (−) with melatonin (10^−7M). […] PCR products were separated on a 1.5% agarose gel and visualized by ethidium bromide staining.

[5] = test system: forskolin-stimulated adenylyl cyclase activity in myoblasts; test: cAMP accumulation assay in skeletal myoblasts, melatonin as agonist; format: cell-based, human; settings: myoblasts from AIS patients
Procedure: The functionality of melatonin signaling is assessed by investigating the ability of Gi proteins to inhibit stimulated adenylyl cyclase activity in intact skeletal myoblasts. Cells prepared from patients with AIS and control subjects are seeded in quadruplet on 24-wells plate (1×10^5 cells/well) and incubated either with dimethyl sulphoxide (DMSO, Sigma™) or forskolin (10^−5M, Sigma™) to stimulate the cAMP formation. To obtain the inhibition curve of cAMP production, melatonin is added to the forskolin-containing samples in concentrations ranging from 10^−11M to 10^−5M in a final volume of 1 ml of DMEM media with 0.5% bovine serum albumin (BSA). After a 30-minute incubation at 37° C., the cells are lysed and the sample centrifuged at 4° C. The cAMP content is determined in 200 μl aliquot of the supernatant using an enzyme immunoassay kit (Amersham-Pharmacia Biosciences).

human osteoblasts = test: Osteoblast proliferation assay ([3H]-thymidine incorporation); format: cell-based; settings: melatonin 10^-9M
Procedure: An assay was performed to compare the proliferation of osteoblasts of normal subjects with that of scoliotic patients. […]

[6] = Bone mineral density (DEXA) in pinealectomized chicken; format: in vivo; settings: melatonin 3 mg/kg/day ip
Procedure: Treatment with melatonin, 3 mg/kg/day ip, increased BMD in treated animals. […]

[7] = test system: osteocalcin (OC), osteopontin (OPN) and bone sialoprotein (BSP); test: Expression analysis of osteoblast terminal differentiation markers; format: cell-based; settings: osteoblasts in vitro
[8] = test system: scoliosis formation after pinealectomy; settings: treatment after pinealectomy in both animal models (chicken, bipedal rats); cited from earlier work

inhibitory effect on cAMP levels ([1]; osteoblasts from a majority of AIS patients): no inhibitory effect
effect on cAMP levels ([1]; osteoblasts from control subjects): reduced cAMP levels
Structure (SMILES): Nc1nc2c(ncn2[C@@H]2O[C@H](COP(=O)(O)OP(=O)(O)NP(=O)(O)O)[C@@H](O)[C@H]2O)c(=O)[nH]1 [Gpp(NH)p, guanilyl 5′-imidophosphate]

Structure (SMILES): C[C@]12CC[C@@H]3c4ccc(O)cc4CC[C@H]3[C@@H]1CC[C@@H]2O [estradiol]
effect on the inhibitory effect of melatonin on forskolin-stimulated adenylyl cyclase activity ([2]; osteoblasts from two AIS patients (group 3), estradiol 10^-10M, melatonin 10^-11 to 10^-5M): further block the inhibitory effect of melatonin

Structure (SMILES): O=c1c(-c2ccc(O)cc2)coc2cc(O)cc(O)c12 [genistein]
phosphorylated forms of Gi3 and Gi2 in MT1 or MT2 immune complexes [3]: completely abolished the presence of both phosphorylated forms

Structure (SMILES): CC(=O)NCCc1c(Cc2ccccc2)[nH]c2ccccc12 [luzindole]
effect on the inhibition of osteoclasts resorption activity by melatonin (human osteoclasts; normal human osteoclasts, luzindole added with melatonin): prevents or reduces the inhibitory effect of melatonin

effect on cAMP accumulation ([2]; AIS group 1 osteoblasts): increased cAMP accumulation
response toward melatonin treatment (cAMP) ([2]; AIS group 3 osteoblasts): weak response
inhibitory effects on adenylyl cyclase activity ([2]; AIS group 3 osteoblasts, higher doses of melatonin): some significant inhibitory effects
binding of Gi3 and Gi2 proteins to MT2 receptors ([3]; osteoblast purified membranes, in presence of melatonin): increased
Structure (SMILES): COc1ccc2[nH]cc(CCNC(C)=O)c2c1 [melatonin]
MT1 receptor subtype expression (RT-PCR) [4]: down regulated
inhibition of cAMP accumulation induced by forskolin ([5]; melatonin 10^-11 to 10^-5M, preliminary tests): incapacity of melatonin to inhibit cAMP accumulation
inhibition of cAMP accumulation induced by forskolin ([5]; supra pharmacological dose 10^-5M): able in 2 cases to inhibit cAMP accumulation
osteoclasts resorption activity (human osteoclasts; normal human osteoclasts derived from peripheral blood, melatonin 10^-9M to 10^-7M): inhibits osteoclasts resorption activity
resorbing activity of osteoclasts (human osteoclasts; osteoclasts isolated from animals with AIS or related syndrome, reasonably predicted): does not affect resorbing activity
inhibition of cAMP accumulation ([2]; AIS group 2 osteoblasts, even at 10^-7M or 10^-5M melatonin): no significant inhibition; also recorded: did not respond
inhibition of cAMP accumulation ([2]; AIS group 3 osteoblasts, physiological dose 10^-9M): no significant inhibition
reduction of cAMP levels (inhibition of forskolin-stimulated adenylyl cyclase activity) ([2]; osteoblasts from control subjects, forskolin 10^-5M, melatonin 10^-11M to 10^-5M, dose-dependent): 60-70%
inhibition of forskolin-stimulated adenylyl cyclase activity ([2]; osteoblasts from patients with AIS): lack of inhibition
phosphorylated forms of Gi3 and Gi2 in MT1 or MT2 immune complexes [3]: completely abolished the presence of both phosphorylated forms
osteoblast growth rate ([3H]-thymidine incorporation) (human osteoblasts; normal osteoblasts): increases linearly
osteoblast growth rate ([3H]-thymidine incorporation) (human osteoblasts; osteoblasts from scoliotic patients): did not respond
bone mineral density (BMD) [6]: increased BMD
expression of osteoblast terminal differentiation markers OC, OPN and BSP [7]: up-regulates
formation of scoliosis after pinealectomy [8]: prevented the formation of scoliosis
